The record followed here is US20120077863A1, “GUANIDINO-SUBSTITUTED BI-AND POLYPHENYLS AS SMALL MOLECULE CARRIERS” (UCL Business PLC, priority 2009, published 2012).

This assay addresses GAPD siRNA. The assay is described as follows: Isothermal calorimetry (ITC) binding of SMOC to siRNA. The following applies: 6G-SMOC 250 μM in syringe, siRNA 3.5 μM in cell, FIG. 2. How it is done:
An isothermal calorimetry experiment (ITC) was carried out to analyse the strength of the binding between the 6G-SMOG compound shown below and siRNA targeted to the […].
6G-SMOC at a concentration of 250 μM was loaded into the syringe of a Microcal VP-ITC calorimeter (450 μl), and the cell (1.8 ml) filled with GAPD siRNA (Dharmacon RNAi Technologies) at a concentration of 3.5 μM. A total of 37 injections of 8 μl each were made at 4 minute intervals to ensure total saturation of the siRNA. The binding curve was plotted using Origin 6.0 (Microcal) and the binding constants calculated.

Compound `N=C(N)NCCOc1cccc(-c2ccc(-c3cccc(OCCNC(=N)N)c3OCCNC(=N)N)c(OCCNC(=N)N)c2OCCNC(=N)N)c1OCCNC(=N)N` [6G-SMOC] registered a Kd of around 80 µM.
